A short description of data set [1]: Antioxidant activity assessed as DPPH radical scavenging activity at 1 uM after 30 mins (reference value: 100%). The format is functional. (In general: DPPH is a stable violet radical that fades when it is reduced.)
Data set [2] is described as follows: Antioxidant activity assessed as DPPH radical scavenging activity at 10 uM after 30 mins (reference value: 100%). The format is functional.
Data set [3] in a line: Antioxidant activity assessed as DPPH radical scavenging activity at 100 uM after 30 mins (reference value: 100%). It is filed as functional.
Data set [4] in a line: Antioxidant activity assessed as DPPH radical scavenging activity at 200 uM after 30 mins (reference value: 100%). The format is functional.
The nature of data set [5]: Antioxidant activity assessed as ABTS radical scavenging activity at 1 uM after 30 mins (reference value: 100%). It is filed as functional.
A short description of data set [6]: Antioxidant activity assessed as ABTS radical scavenging activity at 10 uM after 30 mins (reference value: 100%). It is filed as functional.
The nature of data set [7]: Antioxidant activity assessed as ABTS radical scavenging activity at 100 uM after 30 mins (reference value: 100%). It is filed as functional.
A short description of data set [8]: Antioxidant activity assessed as ABTS radical scavenging activity at 200 uM after 30 mins (reference value: 100%). It is filed as functional.
Data set [9] addresses T1, Acetylcholinesterase (Mus musculus) (UniProt P21836).
T1 sequence (whole entry): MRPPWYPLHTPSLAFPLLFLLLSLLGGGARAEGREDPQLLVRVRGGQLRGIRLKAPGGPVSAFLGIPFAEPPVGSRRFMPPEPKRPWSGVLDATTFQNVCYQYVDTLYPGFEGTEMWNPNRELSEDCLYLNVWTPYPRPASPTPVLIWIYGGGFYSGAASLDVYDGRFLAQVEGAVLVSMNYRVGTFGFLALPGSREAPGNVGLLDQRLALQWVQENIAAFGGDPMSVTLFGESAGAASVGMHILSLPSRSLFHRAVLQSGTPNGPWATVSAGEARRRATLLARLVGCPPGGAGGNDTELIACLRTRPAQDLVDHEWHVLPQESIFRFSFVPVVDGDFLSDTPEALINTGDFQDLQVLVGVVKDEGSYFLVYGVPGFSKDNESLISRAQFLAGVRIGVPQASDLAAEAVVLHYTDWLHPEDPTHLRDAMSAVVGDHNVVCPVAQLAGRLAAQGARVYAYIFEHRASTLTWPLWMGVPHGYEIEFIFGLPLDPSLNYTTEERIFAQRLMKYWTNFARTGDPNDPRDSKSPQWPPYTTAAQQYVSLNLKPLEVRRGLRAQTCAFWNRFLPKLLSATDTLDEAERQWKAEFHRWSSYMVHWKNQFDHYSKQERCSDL
Briefly: Inhibition of AChE in Swiss mouse cerebral cortex homogenate using acetylthiocholine as substrate assessed as acetylthiocholine level per mg protein at 1 uM preincubated for 2 mins followed by substrate addition by DTNB based assay (reference value: 9.6 +/- 0.5 umol/hr).

Data set [10] concerns the target T1, Acetylcholinesterase (Mus musculus). Briefly: Inhibition of AChE in Swiss mouse cerebral cortex homogenate using acetylthiocholine as substrate assessed as acetylthiocholine level per mg protein at 10 uM preincubated for 2 mins followed by substrate addition by DTNB based assay (reference value: 9.6 +/- 0.5 umol/hr).
Data set [11] shares this target. Kind of data set: Inhibition of AChE in Swiss mouse cerebral cortex homogenate using acetylthiocholine as substrate assessed as acetylthiocholine level per mg protein at 100 uM preincubated for 2 mins followed by substrate addition by DTNB based assay (reference value: 9.6 +/- 0.5 umol/hr) (reference value: 9.6 +/- 0.5 umol/hr).
Data set [12] shares this target. Kind of data set: Inhibition of AChE in Swiss mouse cerebral cortex homogenate using acetylthiocholine as substrate assessed as acetylthiocholine level per mg protein at 200 uM preincubated for 2 mins followed by substrate addition by DTNB based assay (reference value: 9.6 +/- 0.5 umol/hr).
Data set [13] shares this target. Briefly: Inhibition of AChE in Swiss mouse cerebral cortex homogenate using acetylthiocholine as substrate assessed as acetylthiocholine level per mg protein at 1 uM preincubated for 2 mins followed by substrate addition by DTNB based assay relative to acetylthiocholine.
The subject of data set [14] is Mus musculus. Briefly: Cognitive enhancement activity in Swiss mouse assessed as step-through latency at 10 mg/kg, ig treated 30 mins before training measured 24 hrs after training trial by passive avoidance test. The format is functional, organism-based.
Data set [15] deals with Mus musculus. Kind of data set: Cognitive enhancement activity in Swiss mouse assessed as increase in step-through latency at 10 mg/kg, ig treated immediately post-training measured 24 hrs after training trial by passive avoidance test relative to control. The format is functional.
Data set [16] deals with Mus musculus. Kind of data set: Cognitive enhancement activity in Swiss mouse assessed as increase in step-through latency at 10 mg/kg, ig treated 30 mins before test session measured 24 hrs after training trial by passive avoidance test relative to control. It is filed as functional.
In data set [17] the test system is Mus musculus. Briefly: Toxicity in Swiss mouse assessed as impairment in locomotory activity at 10 mg/kg, ig treated 30 mins before training measured up to 4 mins by open-field test. It is filed as organism-based. The following applies: in vivo, po.
The test system of data set [18] is Mus musculus. Kind of data set: Toxicity in Swiss mouse assessed as impairment in locomotory activity at 10 mg/kg, ig treated immediately post-training measured up to 4 mins by open-field test. It is filed as organism-based. Particulars: in vivo, po.
The subject of data set [19] is Mus musculus. Briefly: Toxicity in Swiss mouse assessed as impairment in locomotory activity at 10 mg/kg, ig treated 30 mins before test session measured up to 4 mins by open-field test. It is filed as organism-based. The following applies: in vivo, po.
In data set [20] the test system is Mus musculus. Kind of data set: Toxicity in Swiss mouse assessed as impairment in exploratory behavior at 10 mg/kg, ig treated 30 mins before training measured up to 4 mins by open-field test. It is filed as organism-based. The following applies: in vivo, po.
For data set [21], the system named is Mus musculus. Kind of data set: Toxicity in Swiss mouse assessed as impairment in exploratory behavior at 10 mg/kg, ig treated immediately post-training measured up to 4 mins by open-field test. The format is organism-based. Particulars: in vivo, po.
The subject of data set [22] is Mus musculus. Kind of data set: Toxicity in Swiss mouse assessed as impairment in exploratory behavior at 10 mg/kg, ig treated 30 mins before test session measured up to 4 mins by open-field test. The format is organism-based. The following applies: in vivo, po.
Data set [23] concerns the target T1, Acetylcholinesterase (Mus musculus). Kind of data set: Inhibition of AChE in Swiss mouse cerebral cortex homogenate using acetylthiocholine as substrate assessed as acetylthiocholine level per mg protein at 200 uM preincubated for 2 mins followed by substrate addition by DTNB based assay relative to acetylthiocholine.

Molecules are shown by their SMILES. The source made the active and inactive calls. The rule behind the calls is not given here.

On to `Fc1ccc([Se]c2ncnc3[nH]cnc23)cc1`, for which the Activity in data set [1] came out at 99.4%; in data set [2] it was 99.4%; in data set [3], 98.6%; in data set [4] it was 98%; in data set [5], 99.7%; in [6], 101%. In addition, the Activity worked out at 99.7% in data set [7]; 96.9% in data set [8]; 6.6 µmol/h in [9]; 6.5 µmol/h in [10]; 6.6 µmol/h in [11]; 6.6 µmol/h in data set [12]. Also, the Activity in the data set with Mus musculus [15] is on record as 52%; in the data set with Mus musculus [16], 44%; in the data set on Mus musculus [17], “Non-Toxic”; with Mus musculus [18] it was “Non-Toxic”; in the data set on Mus musculus [19], “Non-Toxic”; in the data set on Mus musculus [20] it was “Non-Toxic”. Moreover, the Activity entry in the data set with Mus musculus [21] and in the data set on Mus musculus [22] was “Non-Toxic” in each case. In addition, the Imax in [13] was 31.2%. Moreover, the outcome in the data set with Mus musculus [14] was inactive.

With `Clc1ccc([Se]c2ncnc3[nH]cnc23)cc1`, the Activity amounted to 100% in data set [1]; 98.8% in data set [2]; 85.9% in [3]; 68% in data set [4]; 99.5% in [5]; 98.4% in data set [6]. Also, the Activity in data set [7] turned out to be 86.5%; in data set [8], 72.6%; in data set [9], 7.2 µmol/h; in data set [10] it was 7.3 µmol/h; in data set [11] it was 7.8 µmol/h; in data set [12], 7.8 µmol/h.

Regarding `FC(F)(F)c1cccc([Se]c2ncnc3[nH]cnc23)c1`, the Activity is 99.7% in [1]; 99.4% in data set [2]; 99.4% in data set [3]; 99% in [4]; 99.4% in [5]; 98.9% in [6]. Besides, the Activity in data set [7] was 97.9%; in data set [8] it was 97.6%; in data set [9], 7.9 µmol/h; in data set [10] it was 8.9 µmol/h; in data set [11], 8.2 µmol/h; in data set [12] it was 8.2 µmol/h.

As for `COc1ccc([Se]c2ncnc3[nH]cnc23)cc1`, the Activity came out at 99.8% in data set [1]; 99.7% in data set [2]; 98.5% in [3]; 97.5% in [4]; 101% in [5]; 98.1% in data set [6]. For the same molecule, the Activity in [7] worked out at 97.1%; in [8], 93.5%; in [9] it was 10.4 µmol/h; in data set [10], 11.3 µmol/h; in data set [11] it was 11 µmol/h; in data set [12], 8.8 µmol/h.

In the case of `Cc1ccccc1[Se]c1ncnc2[nH]cnc12`, the Activity in data set [1] came to 100%; in [2], 100%; in data set [3], 99.3%; in [4] it was 98.7%; in [5], 99.3%; in [6] it was 96.9%. For the same molecule, the Activity was 97.7% in data set [7]; 94.8% in [8]; 7.9 µmol/h in data set [9]; 7.6 µmol/h in [10]; 7.1 µmol/h in data set [11]; 6.3 µmol/h in data set [12]. The Imax in [23] amounted to 34.4%.

In the case of `Cc1ccc([Se]c2ncnc3[nH]cnc23)cc1`, the Activity in data set [1] amounted to 101%; in [2], 99.7%; in data set [3], 96.3%; in data set [4] it was 93%; in data set [5], 100%; in data set [6] it was 98%. The Activity in data set [7] amounted to 81.7%; in data set [8] it was 61.5%; in [9] it was 8.7 µmol/h; in data set [10] it was 9.3 µmol/h; in data set [11], 8.9 µmol/h; in data set [12], 8.9 µmol/h.

On to `c1ccc([Se]c2ncnc3[nH]cnc23)cc1`, for which the Activity in data set [1] was 99.4%; in [2], 99.4%; in data set [3], 95.1%; in data set [4], 90.1%; in data set [5] it was 99.9%; in [6], 98.8%. Also, the Activity is 93.2% in [7]; 86.5% in data set [8]; 7.8 µmol/h in [9]; 7.6 µmol/h in [10]; 7.7 µmol/h in data set [11]; 7.6 µmol/h in [12].
